{
  "source": "paper PMC4836696",
  "about": "(PLoS ONE, 2016)",
  "key": {"[1]": {"test": "Clinical study Part B: plasma liraglutide pharmacokinetics"}, "[2]": {"tested_on": "subjects with T2D taking liraglutide", "test": "Clinical study Part B: safety and tolerability", "type": "in vivo, human", "description": "A unit dose of 5 g of GSK457 consisted of three capsules of oleic acid and a separate sachet of powder for each of the three powder compounds. The powders were mixed by the subject into 12 oz of flavored (Mio™ pomegranate/berry flavoring) water in a shaker bottle and consumed just prior to breakfast and dinner. The capsules could be taken with this drink or separately with water. The matching placebo consisted of starch and microcrystalline cellulose in identical sachets and capsules."}, "[3]": {"tested_on": "subjects with T2D taking liraglutide", "test": "Clinical study Part B: pharmacodynamics (weight, glucose, HbA1c)", "type": "in vivo, human", "conditions": "Part B: liraglutide alone titrated to 1.8 mg/day, mean ± SD", "description": "In all three Parts, to reduce the risk of gastrointestinal adverse events subjects started by taking 15 g of GSK457 daily, in 2 divided doses, and were up−titrated to 30g daily (Day 4) and then to a maximum dose of 40 g daily at Day 7. Subjects unable to tolerate doses of 30 g or 40 g were permitted to reduce their dose to tolerated levels, with a minimum tolerated dose of 15 g required to remain in the study. A unit dose of 5 g of GSK457 consisted of three capsules of oleic acid and a separate sachet of powder for each of the three powder compounds. […]\nIn Parts B and C, there were additional clinic visits on Days 7, 14, and 28 for safety evaluations, potential modification of dose (Days 7 and 14), and dispensing of study medications. Subjects monitored their capillary blood glucose levels twice a day using a wireless-enabled glucometer and daily weights were monitored using a wireless enabled weighing instrument (see S3 Materials and Methods for more information). […]\nVenous blood samples were collected for PD and PK analysis in K^+ EDTA tubes and rapidly placed on ice until centrifuged at 4°C for 10 minutes. Plasma was stored at -70°C until analyzed. Samples for clinical chemistry and hematology were measured by the local certified laboratory. Plasma samples were analyzed for glucose, insulin and leptin by BioAgilytix Labs (Durham, NC, USA). […]"}, "DIO C57BL/6NTac mice": {"tested_on": "DIO C57BL/6NTac mice", "test": "Chronic 28-day weight loss study in DIO mice", "type": "in vivo, mouse"}, "[4]": {"tested_on": "subjects with T2D taking metformin", "test": "Clinical study Part C: pharmacodynamics (weight, glucose, HbA1c)", "type": "in vivo, human", "conditions": "Part C: usual metformin alone, mean ± SE", "description": "In all three Parts, to reduce the risk of gastrointestinal adverse events subjects started by taking 15 g of GSK457 daily, in 2 divided doses, and were up-titrated to 30g daily (Day 4) and then to a maximum dose of 40 g daily at Day 7. Subjects unable to tolerate doses of 30 g or 40 g were permitted to reduce their dose to tolerated levels, with a minimum tolerated dose of 15 g required to remain in the study. A unit dose of 5 g of GSK457 consisted of three capsules of oleic acid and a separate sachet of powder for each of the three powder compounds. […] Subjects monitored their capillary blood glucose levels twice a day using a wireless-enabled glucometer and daily weights were monitored using a wireless enabled weighing instrument (see S3 Materials and Methods for more information). […] Plasma was stored at -70°C until analyzed. Samples for clinical chemistry and hematology were measured by the local certified laboratory. Plasma samples were analyzed for glucose, insulin and leptin by BioAgilytix Labs (Durham, NC, USA). Glucose was measured using a Glucose 2300 STAT Plus Glucose Analyzer with the glucose/lactate standard, catalog number 2747 (Yellow Springs Instrument Co, OH, USA). […] An estimation approach was used where point estimates for treatment differences and corresponding confidence intervals were determined. […]"}, "[5]": {"test": "Clinical study Part A: plasma metformin pharmacokinetics", "conditions": "for metformin Cmax / metformin AUC(0−10): geometric mean (CV%); for metformin Tmax: median (range)"}, "patients": {"tested_on": "patients", "conditions": "cited from earlier work"}, "[6]": {"conditions": "protocol risk table; cited from earlier work"}, "[7]": {"test": "Clinical study Part C: plasma metformin pharmacokinetics", "type": "in vivo, human", "conditions": "Part C: metformin taken 1 hour before GSK457; comparative plot, no statistics", "protocol": "All samples were shipped frozen on dry ice and stored at approximately -20 °C until analysed. […] The eluate was then further diluted with 1.00 mL of 2:98 formic acid / acetonitrile vol/vol, prior to being analyzed by HPLC with MS/MS detection."}, "[8]": {"conditions": "Part B, GSK457 group, Day 42, median (range), n=11"}, "[9]": {"conditions": "Part B, with GSK457, data from 1 outlier excluded"}, "[10]": {"conditions": "subjects later randomized to GSK457"}, "[11]": {"conditions": "subjects later randomized to placebo"}, "[12]": {"conditions": "Part A healthy subjects, co-administration with GSK457"}, "[13]": {"conditions": "Part A, single 500 mg IR metformin, GSK457 group, Day 1 (metformin alone), n=11"}, "[14]": {"conditions": "Part A, single 500 mg IR metformin, GSK457 group, Day 42 (with GSK457), n=10"}, "[15]": {"conditions": "Part A, single 500 mg IR metformin, Placebo group, Day 1, n=4"}, "[16]": {"conditions": "Part A, single 500 mg IR metformin, Placebo group, Day 42, n=4"}, "[17]": {"conditions": "overdose, ref GLUCOPHAGE (Metformin) Package Insert"}},
  "note": "“Also recorded” adds a separate entry of the source.",
  "data": [
    {"compound": "CCCCCCCCCCCCCCCC(=O)N[C@@H](CCC(=O)NCCCC[C@H](NC(=O)[C@H](C)NC(=O)[C@H](C)NC(=O)[C@H](CCC(N)=O)NC(=O)CNC(=O)[C@H](CCC(=O)O)NC(=O)[C@H](CC(C)C)NC(=O)[C@H](Cc1ccc(O)cc1)NC(=O)[C@H](CO)NC(=O)[C@H](CO)NC(=O)[C@@H](NC(=O)[C@H](CC(=O)O)NC(=O)[C@H](CO)NC(=O)[C@@H](NC(=O)[C@H](Cc1ccccc1)NC(=O)[C@@H](NC(=O)CNC(=O)[C@H](CCC(=O)O)NC(=O)[C@H](C)NC(=O)[C@@H](N)Cc1cnc[nH]1)[C@@H](C)O)[C@@H](C)O)C(C)C)C(=O)N[C@@H](CCC(=O)O)C(=O)N[C@@H](Cc1ccccc1)C(=O)N[C@H](C(=O)N[C@@H](C)C(=O)N[C@@H](Cc1c[nH]c2ccccc12)C(=O)N[C@@H](CC(C)C)C(=O)N[C@H](C(=O)N[C@@H](CCCNC(=N)N)C(=O)NCC(=O)N[C@@H](CCCNC(=N)N)C(=O)NCC(=O)O)C(C)C)[C@@H](C)CC)C(=O)O", "note": "[liraglutide]", "values": [
      {"measurement": "effect of co-administration with GSK457 on liraglutide plasma exposures", "setting": "[1]; Part B T2D patients, all data", "value": "did not affect liraglutide plasma exposures; also recorded: no effect"},
      {"measurement": "liraglutide AUC(0−t)", "setting": "[1]; Part B, GSK457 group, Day 42 (with GSK457), geometric mean (CV%), n=11", "value": "1266 (79.4) ng.h/mL"},
      {"measurement": "liraglutide Tlast", "setting": "[1]; [8]", "value": "24.02 (23.8−24.3) h"},
      {"measurement": "liraglutide Tmax", "setting": "[1]; [8]", "value": "9.98 (0.8−23.8) h"},
      {"measurement": "liraglutide Tlast", "setting": "[1]; Part B, GSK457 group, Day -1, median (range), n=12", "value": "23.88 (23.0−25.9) h"},
      {"measurement": "liraglutide Tlast", "setting": "[1]; Part B, Placebo group, Day 42, median (range), n=5", "value": "23.80 (23.8−24.1) h"},
      {"measurement": "increase of liraglutide AUC(0−t)", "setting": "[1]; [9]", "value": 28, "unit": "%"},
      {"measurement": "increase of liraglutide Cmax", "setting": "[1]; [9]", "value": 22, "unit": "%"},
      {"measurement": "most common drug-related adverse events during the Stabilization period", "setting": "[2]; Part B: liraglutide alone, 12 weeks, titrated to 1.8 mg/day", "value": "nausea, diarrhea, decreased appetite, and headache"},
      {"measurement": "circulating lipase/amylase concentrations", "setting": "[2]; Part B: while subjects were on liraglutide, no symptoms or signs of pancreatitis, no clear differentiation GSK457 vs placebo", "value": "Asymptomatic elevations"},
      {"measurement": "change in mean body weight during the 12-week liraglutide Stabilization phase", "setting": "[3]; [10]", "value": -1.29, "unit": "kg"},
      {"measurement": "change in mean body weight during the 12-week liraglutide Stabilization phase", "setting": "[3]; [11]", "value": -2.55, "unit": "kg"}
    ]},
    {"compound": "CCCCCCCC/C=C\\CCCCCCCC(=O)O", "note": "[oleic acid]", "values": [
      {"measurement": "effect on endocrine hormones", "setting": "DIO C57BL/6NTac mice; agents dosed individually", "value": "little effect"},
      {"measurement": "serum chemistry, effect of single agents", "setting": "DIO C57BL/6NTac mice; single GRAS agent in chow", "value": "only a small beneficial effect"},
      {"measurement": "serum glucose vs. DIO vehicle", "setting": "DIO C57BL/6NTac mice; single agent in chow, p < 0.05", "value": "lowered glucose"}
    ]},
    {"compound": "CN(C)C(=N)N=C(N)N", "note": "[metformin]", "values": [
      {"measurement": "change in mean body weight during the 4-week metformin Stabilization phase", "setting": "[4]; [10]", "value": -1.62, "unit": "kg"},
      {"measurement": "change in mean body weight during the 4-week metformin Stabilization phase", "setting": "[4]; [11]", "value": -1.17, "unit": "kg"},
      {"measurement": "reduction of metformin systemic exposure", "setting": "[5]; Part A healthy subjects, by GSK457", "value": "~ 30%"},
      {"measurement": "decrease of metformin AUC(0−10 h)", "setting": "[5]; [12]", "value": 32, "unit": "%"},
      {"measurement": "decrease of metformin Cmax", "setting": "[5]; [12]", "value": 34, "unit": "%"},
      {"measurement": "metformin Cmax", "setting": "[5]; Part A healthy subjects, single 500 mg IR metformin before breakfast, Placebo group, Day 1, plasma, HPLC-MS/MS, n=4", "value": "682 (19.0) ng/mL"},
      {"measurement": "metformin AUC(0−10)", "setting": "[5]; [13]", "value": "3403 (26.4) ng.h/mL"},
      {"measurement": "metformin Tmax", "setting": "[5]; [13]", "value": "2.00 (1.00−4.00) h"},
      {"measurement": "metformin Cmax", "setting": "[5]; Part A, single 500 mg IR metformin, GSK457 group, Day 1 (metformin alone, GSK457 started at dinner), n=11", "value": "576 (24.4) ng/mL"},
      {"measurement": "metformin Cmax", "setting": "[5]; Part A, single 500 mg IR metformin, GSK457 group, Day 42 (taken together with GSK457 after 6 weeks), n=10", "value": "374 (31.2) ng/mL"},
      {"measurement": "metformin AUC(0−10)", "setting": "[5]; [14]", "value": "2232 (38.6) ng.h/mL"},
      {"measurement": "metformin Tmax", "setting": "[5]; [14]", "value": "2.00 (2.00−5.50) h"},
      {"measurement": "metformin AUC(0−10)", "setting": "[5]; [15]", "value": "4347 (19.1) ng.h/mL"},
      {"measurement": "metformin Tmax", "setting": "[5]; [15]", "value": "3.01 (2.00−4.03) h"},
      {"measurement": "metformin AUC(0−10)", "setting": "[5]; [16]", "value": "5082 (21.1) ng.h/mL"},
      {"measurement": "metformin Cmax", "setting": "[5]; [16]", "value": "860 (18.8) ng/mL"},
      {"measurement": "metformin Tmax", "setting": "[5]; [16]", "value": "4.00 (2.00−4.03) h"},
      {"measurement": "patients with decrease to subnormal serum vitamin B12 levels", "setting": "patients; human, in vivo", "value": "approximately 7%"},
      {"measurement": "hypoglycemia in metformin overdose cases", "setting": "patients; [17]", "value": "approximately 10 % of cases"},
      {"measurement": "lactic acidosis in metformin overdose cases", "setting": "patients; [17]", "value": "approximately 32%"},
      {"measurement": "fraction of a dose that appears in the feces", "setting": "[6]", "value": "20-30%"},
      {"measurement": "effect on metformin AUC(0−10 h)", "setting": "[7]", "value": "slight decrease"},
      {"measurement": "effect on metformin Cmax", "setting": "[7]", "value": "no apparent effect"}
    ]}
  ]
}
